Data taken from patent US20120115842A1 (priority 2004, published 2012).

Molecular target: T1, human vasopressin V1b receptor (Homo sapiens, UniProt P47901)
T1 construct: expressed in transfected cells; host or cells: CHO-K1 (cell line hV1b-3H2_CHO), membranes
T1 sequence (P47901 1-424): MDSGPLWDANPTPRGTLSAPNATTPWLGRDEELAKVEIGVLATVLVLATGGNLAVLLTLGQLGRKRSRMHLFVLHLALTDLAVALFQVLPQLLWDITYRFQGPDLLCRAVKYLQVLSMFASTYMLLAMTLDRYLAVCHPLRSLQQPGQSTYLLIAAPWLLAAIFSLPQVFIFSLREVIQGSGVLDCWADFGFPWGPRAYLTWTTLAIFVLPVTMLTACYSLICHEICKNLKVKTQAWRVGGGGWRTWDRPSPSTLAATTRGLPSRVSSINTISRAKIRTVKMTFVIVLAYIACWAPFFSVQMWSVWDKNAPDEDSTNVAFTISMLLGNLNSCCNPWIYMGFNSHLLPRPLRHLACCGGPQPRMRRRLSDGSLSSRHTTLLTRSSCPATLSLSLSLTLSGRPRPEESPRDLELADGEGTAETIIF
Test: Vasopressin V1b receptor binding assay (3H-AVP displacement)
Details: for Ki: membranes from CHO-K1 cells with stably expressed human V1b receptors, 1.5 nM 3H-AVP, read-out: affinity constants (Ki) for the human vasopressin V1b receptor; for selectivity vis-a-vis V1b by comparison with V1a, V2 and/or OT: quotient of Ki values: Ki(V1a)/Ki(V1b), Ki(V2)/Ki(V1b) and/or Ki(OT)/Ki(V1b)
Protocol: The test substances were dissolved in a concentration of 10^−2 M in DMSO and further diluted to 5×10^−4 M to 5×10^−9 M in DMSO. These DMSO solutions were diluted 1:10 with assay buffer. The substance concentration was again diluted 1:5 in the assay mixture.
CHO-K1 cells with stably expressed human vasopressin V1b receptor (clone 3H2) were harvested and homogenized in 50 mM Tris-HCl and in the presence of protease inhibitors (Roche complete Mini #1836170) with a Polytron homogenizer at a medium setting for 2×10 seconds and subsequently centrifuged at 40 000×g for 1 h. The membrane pellet was again homogenized and centrifuged as described and then taken up in 50 mM Tris-HCl, pH 7.4, homogenized and stored in aliquots frozen in liquid nitrogen at −190° C.
The binding assay was carried out by a method based on that of Tahara et al. (Tahara A et al., Brit. J. Pharmacol. 125, 1463-1470 (1998)). The incubation buffer was: 50 mM Tris, 10 mM MgCl2, 0.1% BSA, pH 7.4.
In the assay mixture (250 μl), membranes (50 μg/ml protein in incubation buffer) from CHO-K1 cells with stably expressed human V1b receptors (cell line hV1b—3H2_CHO) were incubated with 1.5 nM ^3H-AVP (8-Arg-vasopressin, PerkinElmer #18479) in incubation buffer (50 mM Tris, 10 mM MgCl2, 0.1% BSA, pH 7.4) (total binding) or additionally with increasing concentrations of test substance (displacement experiment). The nonspecific binding was determined with 1 uM AVP (Bachem # H1780). All determinations were carried out as triplicate determinations. After incubation (60 minutes at room temperature), the free radioligand was removed by vacuum filtration (Skatron cell harvester 7000) through Wathman G F/B glass fiber filter mats, and the filters were transferred into scintillation vials. The liquid scintillation measurement took place in a Tricarb model 2000 or 2200CA instrument (Packard). Conversion of the measured cpm into dpm was carried out with the aid of a standard quench series.
The binding parameters were calculated by nonlinear regression in SAS. The algorithms of the program operate in analogy to the LIGAND analysis program (Munson P J and Rodbard D, Analytical Biochem. 107, 220-239 (1980)). The Kd of ^3H-AVP for the recombinant […] receptors is 0.4 nM and was used to determine the Ki value.

Row | SMILES | Ki [nM] | selectivity vis-a-vis V1b by comparison with V1a, V2 and/or OT
1 | COc1ccc(S(=O)(=O)N2C(=O)C(c3ccccc3OC)(N3C[C@H](O)C[C@H]3C(=O)N(C)C)c3cc(C#N)ccc32)cc1 (stereo partly drawn) [Example 19, (−)-(2S,4R)-1-[5-Cyano-1-(4-methoxybenzenesulfonyl)-3-(2-methoxyphenyl)-2-oxo-2,3-dihydro-1H-indol-3-yl]-4-hydroxypyrrolidine-2-dimethylcarboxamide] | < 100 | improved selectivity
2 | COc1ccc(S(=O)(=O)N2C(=O)C(c3ccccc3OC)(N3CC(O)CC3C(=O)N(C)C)c3cc(C#N)ccc32)c(OC)c1 (single isomer, unassigned) [Example 1] | < 100 | improved selectivity
3 | COc1ccc(S(=O)(=O)N2C(=O)C(c3ccccc3OC)(N3CC(O)CC3C(=O)N(C)C)c3cc(C#N)ccc32)c(OC)c1 (single isomer, unassigned; (+)) [Example 16] |  | improved selectivity
4 | COc1ccc(S(=O)(=O)N2C(=O)C(c3ccccc3OC)(N(C)[C@@H](C)C(=O)N(C)C)c3cc(C#N)ccc32)cc1 (mixture of isomers) [Example 15] | < 100 | improved selectivity
5 | COc1ccc(S(=O)(=O)N2C(=O)C(c3ccccc3OC)(N3CCC[C@H]3C(=O)N(C)C)c3cc(C#N)ccc32)cc1 (single isomer, unassigned; (+)) [Example 17b] | < 100 | improved selectivity
